According to patent publication US20050112713A1, “Methods of using Fab I and compounds modulating Fab I activity” (Affinium Pharmaceuticals, Inc., priority 1996, published 2005):
Like-named read-outs stand apart in the source and are kept apart here.

Tests used:
S. aureus Fab I [1] = target: T1, S. aureus Fab I (Staphylococcus aureus, UniProt Q6GI75); experiment: Kinetic characterization of native S. aureus Fab I (substrates, mode of inhibition); format: biochemical
T1 construct: made in house; host or cells: E. coli
T1 sequence (Q6GI75 1-256): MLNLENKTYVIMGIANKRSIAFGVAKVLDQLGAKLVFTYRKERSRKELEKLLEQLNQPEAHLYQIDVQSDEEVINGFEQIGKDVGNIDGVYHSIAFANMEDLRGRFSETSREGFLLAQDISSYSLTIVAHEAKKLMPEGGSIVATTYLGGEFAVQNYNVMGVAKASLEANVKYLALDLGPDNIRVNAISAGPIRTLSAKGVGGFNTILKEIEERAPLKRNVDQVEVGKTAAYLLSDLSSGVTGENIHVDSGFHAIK
Protocol: (§1) Crotonoyl CoA was used as the substrate for Fab I and all activity measurements were based on a decrease in absorbance at 340 nm due to the utilization of NADH (FIG. 1). All assays were performed with 100 mM NaADA, pH 6.5 buffer. Acyl-CoA inhibition data was performed in the presence of 1 mM crotonoyl CoA and 1 mM NADH.
(§2) However, studies performed at pH 6.0-7.0 with the native enzyme illustrated a sequential mechanistic pattern and kinetic parameters resulting from these studies indicated no overt change in either magnitude or kinetic mechanism. Thus the His10 tagged Fab I behaved distinctly from native Fab I enzyme.

E. coli Fab I [2] = target: T2, E. coli Fab I (Escherichia coli, UniProt P0AEK4); details: cited from earlier work
S. aureus Fab I [3] = target: T1, S. aureus Fab I; experiment: Inhibition of non his tagged (native) Fab I by saturated fatty acyl CoA's, NADH consumption at 340 nm; format: biochemical; details: read-out: Mean IC50 (uM) (n = 2), 1 mM crotonoyl CoA and 1 mM NADH, 100 mM NaADA, pH 6.5
Protocol: as §1

E. coli Fab I [4] = target: T2, E. coli Fab I; experiment: Kinetic constants of E. coli Fab I for its substrates; format: biochemical
Description: A diazaborine derivative may be used as a positive control, this should be readily available via a 2 step synthesis with publicly available starting materials using methods known in the art. Test compounds may be added to this assay to determine whether they agonize or antagonize enzymatic activity.

[5] = substrate: C/C=C/C(=O)SCCNC(=O)CCNC(=O)[C@H](O)C(C)(C)COP(=O)(O)OP(=O)(O)OC[C@H]1O[C@@H](n2cnc3c(N)ncnc32)[C@H](O)[C@@H]1OP(=O)(O)O; experiment: Kinetic characterization of native S. aureus Fab I (substrates, mode of inhibition); format: biochemical, Staphylococcus aureus; details: other: S. aureus Fab I
Protocol: as §1, §2

T2 sequence (P0AEK4 whole entry): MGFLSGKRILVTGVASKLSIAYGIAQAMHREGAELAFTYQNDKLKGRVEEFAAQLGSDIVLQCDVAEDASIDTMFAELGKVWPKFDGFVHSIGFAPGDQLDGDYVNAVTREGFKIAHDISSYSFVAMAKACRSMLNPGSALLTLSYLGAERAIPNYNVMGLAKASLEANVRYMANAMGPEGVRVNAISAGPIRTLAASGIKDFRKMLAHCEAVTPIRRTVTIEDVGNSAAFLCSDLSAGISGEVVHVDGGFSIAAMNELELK

Q: Which KCCA (S. aureus Fab I [1]; native S. aureus Fab I) does the source give for `C/C=C/C(=O)SCCNC(=O)CCNC(=O)[C@H](O)C(C)(C)COP(=O)(O)OP(=O)(O)OC[C@H]1O[C@@H](n2cnc3c(N)ncnc32)[C@H](O)[C@@H]1OP(=O)(O)O` [CCA, crotonoyl CoA] here?
A: 2.5 mM

Q: What about the KCCA (E. coli Fab I [2]; E. coli Fab I, Bergler et al 1994) of the same molecule?
A: 2.7 mM

Q: And the Km (E. coli Fab I [2]; substrate of FAB I activity assay (Bergler et al 1994))?
A: 2700 µM

Q: For `CCCC(=O)SCCNC(=O)CCNC(=O)[C@H](O)C(C)(C)COP(=O)(O)OP(=O)(O)OC[C@H]1O[C@@H](n2cnc3c(N)ncnc32)[C@H](O)[C@@H]1OP(=O)(O)O` [n-Butyryl], which IC50 (S. aureus Fab I [3]) is on record?
A: > 1000 µM

Q: With `NC(=O)C1=CN([C@@H]2O[C@H](COP(=O)(O)OP(=O)(O)OC[C@H]3O[C@@H](n4cnc5c(N)ncnc54)[C@H](O)[C@@H]3O)[C@@H](O)[C@H]2O)C=CC1` [NADH] as the molecule, how does the “Kmapp for NADH relative to NADPH” value (S. aureus Fab I [1]; S. aureus Fab I) read?
A: approximately 30 fold

Q: And the Km (S. aureus Fab I [1]; S. aureus Fab I, read-out: Km for NADH)?
A: ~410 µM

Q: What about the KNADH (S. aureus Fab I [1]; native S. aureus Fab I) of the same molecule?
A: 0.7 mM

Q: What about the KiNADH (S. aureus Fab I [1]; native S. aureus Fab I) of the same molecule?
A: 0.2 mM

Q: What about the KNADH (E. coli Fab I [4]) of the same molecule?
A: 0.01 mM

Q: What about the Km (E. coli Fab I [4]; read-out: Km for NADH) of the same molecule?
A: 13 µM

Q: With “Apo-ACP: apo acyl carrier protein, inhibitor of Fab I” as the molecule, how does the “Mode of inhibition versus NADH” value (S. aureus Fab I [1]; S. aureus Fab I) read?
A: uncompetitive

Q: What about the “Mode of inhibition versus crotonoyl CoA” value (S. aureus Fab I [1]; S. aureus Fab I) of the same molecule?
A: competitive

Q: With `CCCCCCCC(=O)SCCNC(=O)CCNC(=O)C(O)C(C)(C)COP(=O)(O)OP(=O)(O)OC[C@H]1O[C@@H](n2cnc3c(N)ncnc32)[C@H](O)[C@@H]1OP(=O)(O)O` (stereo partly drawn) [n-Octanoyl] as the molecule, how does the IC50 (S. aureus Fab I [3]) read?
A: 248 µM

Q: With `CCCCCC(=O)SCCNC(=O)CCNC(=O)C(O)C(C)(C)COP(=O)(O)OP(=O)(O)OC[C@H]1O[C@@H](n2cnc3c(N)ncnc32)[C@H](O)[C@@H]1OP(=O)(O)O` (stereo partly drawn) [n-Hexanoyl] as the molecule, how does the IC50 (S. aureus Fab I [3]) read?
A: 576 µM

Q: Which IC50 (S. aureus Fab I [3]) does the source give for `CCCCCCCCCCCCCC(=O)SCCNC(=O)CCNC(=O)[C@H](O)C(C)(C)COP(=O)(O)OP(=O)(O)OC[C@H]1O[C@@H](n2cnc3c(N)ncnc32)[C@H](O)[C@@H]1OP(=O)(O)O` [Myristoyl] here?
A: 23.1 µM

Q: Which IC50 (S. aureus Fab I [3]) does the source give for `CCCCCCCCCC(=O)SCCNC(=O)CCNC(=O)C(O)C(C)(C)COP(=O)(O)OP(=O)(O)OC[C@H]1O[C@@H](n2cnc3c(N)ncnc32)[C@H](O)[C@@H]1OP(=O)(O)O` (stereo partly drawn) [n-Decanoyl] here?
A: 226 µM

Q: With `CC(=O)SCCNC(=O)CCNC(=O)[C@H](O)C(C)(C)COP(=O)(O)OP(=O)(O)OC[C@H]1O[C@@H](n2cnc3c(N)ncnc32)[C@H](O)[C@@H]1OP(=O)(O)O` [Acetyl] as the molecule, how does the IC50 (S. aureus Fab I [3]) read?
A: > 1000 µM

B1: S. aureus Fab I (Staphylococcus aureus subsp. aureus MRSA252) (protein)
chain: T1 sequence (Q6GI75 1-256)
notes: made in house; host or cells: E. coli
Q: With B1 as the molecule, how does the Km [5] read?
A: 2500 µM
